Source: patent publication US7722901B2, “Uses for the extract of a plant of the family Asclepiadaceae” (Cognis IP Management GmbH, priority 2004, dated 2010)

System: human hair follicles
Assay: In vitro culture of human hair follicles (hair growth inhibition)
Format: cell-based
Settings: 50 follicles from 5 donors
Procedure: The hair follicles were incubated for 7 days at 37° C. under an atmosphere of air that was enriched with carbon dioxide (5 vol.-%). The length of hair follicles was monitored before being cultured, after 3 days of culture and after 7 days of culture. […] The test was done on hair follicles coming from 3-5 different donors. For each donor 10 follicles were cultured for each set of conditions. The results presented in table 2 are the cumulated results of all hair follicles.

[1] = with IGF-1 (30 ng/ml), 0.001 % P/v

`C=C[C@@]1(C)CC(=O)[C@]2(O)[C@@]3(C)[C@@H](O)CCC(C)(C)[C@@H]3[C@H](O)[C@H](OC(C)=O)[C@@]2(C)O1` [Forskolin] was tested, and the “increase in hair growth Day 3/Day 0” value [1] was “+9%”, the “increase in hair growth Day 7/Day 0” value [1] was “+17%” and the “increase in hair growth Day 3/Day 0” value (without IGF-1, 0.001 % P/v) was “+8%”. The “increase in hair growth Day 7/Day 0” value (without IGF-1, 0.001 % P/v) was “+15%”.
